Assays:
[1] = Acute toxicity, intravenous (once), ddY mice; assay type: in vivo; details: mouse, in vivo, iv, formulated per Preparation Example
Description: In Table 7 are shown acute toxicity values (LD50, mg/kg) in ddY mice in the case of intravenously administering (once) each of the compounds of this invention in the form of preparations shown in the Preparation Examples shown in Table 7.

[2] = system: P-388 leukemia cells; assay: Antitumor activity: P-388 leukemia cells inoculated intraperitoneally, drug administered intravenously, BDF1 mice; assay type: in vivo; details: Mus musculus, P388, iv, BDF1 mice, P-388 i.p., read-out: T/C (%) of MST; for response vs control in vivo at 160 mg/kg: dose i: 160 mg/kg × 3, i.v. on days 1, 5 and 9; for response vs control in vivo at 80 mg/kg: dose f: 80 mg/kg × 3, i.v. on days 1, 5 and 9; for response vs control in vivo at 40 mg/kg: dose c: 40 mg/kg × 3, i.v. on days 1, 5 and 9; for response vs control in vivo at 10 mg/kg: dose a: 10 mg/kg × 3, i.v. on days 1, 5 and 9; for response vs control in vivo at 20 mg/kg: dose b: 20 mg/kg × 3, i.v. on days 1, 5 and 9
How it was run: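 Drug dosing was intravenous on the first, fifth and ninth days after intraperitoneal inoculation of P-388 leukemia cells (1×10^6 per mouse) into BDF1 mice. Vehicles were physiological saline alone, or saline with small amounts of sodium carboxymethyl cellulose or Tween-80.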

SMILES | LD50 [1] | response vs control in vivo at 40 mg/kg [2] | also measured
COC1C(O)C(C)OC(OC2C(Oc3cccc4c(OC(=O)CCCCCCCCCCCNC(C)=O)c5c(=O)oc6ccc(C)c7c(=O)oc(c34)c5c67)OC(C)C3OC(C)(C)OC32)C1O (stereo not drawn) [compound 129] | ≥ 180 mg/kg | – | response vs control in vivo at 160 mg/kg [2]: 167%
COC1C(O)C(C)OC(OC2C(Oc3cccc4c(OC(=O)CCCCCNC(=O)C(F)(F)F)c5c(=O)oc6ccc(C)c7c(=O)oc(c34)c5c67)OC(C)C3OC(CC(C)=O)OC32)C1O (stereo not drawn) [compound 130] | ≥ 180 mg/kg | – | response vs control in vivo at 160 mg/kg [2]: 141%
CCC1(C)O[C@H]2[C@@H](O1)[C@@H](C)O[C@@H](Oc1cccc3c(OC(=O)CC(C)NC(=O)C(F)(F)F)c4c(=O)oc5ccc(C)c6c(=O)oc(c13)c4c56)[C@@H]2O[C@H]1O[C@H](C)[C@H](O)[C@H](OC)[C@H]1O (stereo partly drawn) [compound 131] | ≥ 100 mg/kg | – | response vs control in vivo at 80 mg/kg [2]: 148%
COC1C(O)C(C)OC(OC2C(Oc3cccc4c(OC(=O)CCNC(=O)C(F)(F)F)c5c(=O)oc6ccc(C)c7c(=O)oc(c34)c5c67)OC(C)C3OC4(CCCCC4)OC32)C1O (stereo not drawn) [compound 132] | ≥ 100 mg/kg | 136% | response vs control in vivo at 80 mg/kg [2]: 146%
COC1C(O)C(C)OC(OC2C(Oc3cccc4c(OC(=O)C(Cc5c[nH]c6ccccc56)NC(=O)OCc5ccccc5)c5c(=O)oc6ccc(C)c7c(=O)oc(c34)c5c67)OC(C)C3OC4(CCCCC4)OC32)C1O (stereo not drawn) [compound 133] | ≥ 100 mg/kg | – | response vs control in vivo at 80 mg/kg [2]: 139%
CCC(CN(C)C)C(=O)Oc1c2cccc(OC3OC(C)C4OC(c5ccccc5)OC4C3OC3OC(C)C(O)C(OC)C3O)c2c2oc(=O)c3c(C)ccc4oc(=O)c1c2c43 (stereo not drawn) [compound 134] | ≥ 30 mg/kg | – | response vs control in vivo at 10 mg/kg [2]: 192%; response vs control in vivo at 20 mg/kg [2]: 175%
C=CCCC(=O)Oc1c2cccc(O[C@@H]3O[C@H](C)[C@@H]4OC(c5ccccc5)O[C@@H]4[C@H]3O[C@H]3O[C@H](C)[C@H](O)[C@H](OC)[C@H]3O)c2c2oc(=O)c3c(C)ccc4oc(=O)c1c2c43 (stereo partly drawn) [compound 192] | ≥ 40 mg/kg | – | response vs control in vivo at 10 mg/kg [2]: 153%; response vs control in vivo at 20 mg/kg [2]: 199%
COc1cccc(C(=O)Oc2c3cccc(O[C@@H]4O[C@H](C)[C@@H]5OC(c6ccccc6)O[C@@H]5[C@H]4O[C@H]4O[C@H](C)[C@H](O)[C@H](OC)[C@H]4O)c3c3oc(=O)c4c(C)ccc5oc(=O)c2c3c54)c1 (stereo partly drawn) [compound 193] | ≥ 40 mg/kg | – | response vs control in vivo at 10 mg/kg [2]: 162%
CO[C@H]1[C@@H](O)[C@@H](C)O[C@H](O[C@H]2[C@H](Oc3cccc4c(OC(=O)c5ccc(Cl)cc5)c5c(=O)oc6ccc(C)c7c(=O)oc(c34)c5c67)O[C@H](C)[C@@H]3OC(c4ccccc4)O[C@@H]32)[C@@H]1O (stereo partly drawn) [compound 194] | ≥ 40 mg/kg | 192% | response vs control in vivo at 20 mg/kg [2]: 130%
CO[C@H]1[C@@H](O)[C@@H](C)O[C@H](O[C@H]2[C@H](Oc3cccc4c(OC(=O)c5ccc(C(F)(F)F)cc5)c5c(=O)oc6ccc(C)c7c(=O)oc(c34)c5c67)O[C@H](C)[C@@H]3OC(c4ccccc4)O[C@@H]32)[C@@H]1O (stereo partly drawn) [compound 195] | ≥ 40 mg/kg | 165% | –
C=CC(=O)Oc1c2cccc(O[C@@H]3O[C@H](C)[C@@H]4OC(C)(C)O[C@@H]4[C@H]3O[C@H]3O[C@H](C)[C@H](O)[C@H](OC)[C@H]3O)c2c2oc(=O)c3c(C)ccc4oc(=O)c1c2c43 [compound 197] | ≥ 80 mg/kg | 144% | response vs control in vivo at 80 mg/kg [2]: 171%
CO[C@H]1[C@@H](O)[C@@H](C)O[C@H](O[C@H]2[C@H](Oc3cccc4c(OC(=O)C=C(C)C(F)(F)F)c5c(=O)oc6ccc(C)c7c(=O)oc(c34)c5c67)O[C@H](C)[C@@H]3OC(C)(C)O[C@@H]32)[C@@H]1O [compound 198] | ≥ 80 mg/kg | 176% | –
CO[C@H]1[C@@H](O)[C@@H](C)O[C@H](O[C@H]2[C@H](Oc3cccc4c(OC(=O)COC(=O)c5ccccc5)c5c(=O)oc6ccc(C)c7c(=O)oc(c34)c5c67)O[C@H](C)[C@@H]3OC(C)(C)O[C@@H]32)[C@@H]1O [compound 199] | ≥ 60 mg/kg | – | response vs control in vivo at 50 mg/kg ([2]; dose d: 50 mg/kg × 3, i.v. on days 1, 5 and 9): 159%
C/C=C/C(=O)Oc1c2cccc(O[C@@H]3O[C@H](C)[C@@H]4OC(C)(C)O[C@@H]4[C@H]3O[C@H]3O[C@H](C)[C@H](O)[C@H](OC)[C@H]3O)c2c2oc(=O)c3c(C)ccc4oc(=O)c1c2c43 [compound 200] | ≥ 80 mg/kg | 168% | –
